Experimental data published in ChEMBL document CHEMBL5154810, “Development of Potent Immune Modulators Targeting Stimulator of Interferon Genes Receptor” (J Med Chem, 2022).
The source made the active and inactive calls. No cut-off for these calls is given here.

Legend:
[1] = target: Stimulator of interferon genes protein (Homo sapiens, UniProt Q86WV6); conditions: THP1-Dual, filed as activator, dose 50.0 µM, time 24.0 hrs
[2] = Cytotoxicity against human THP1-Dual KO-STING cells assessed as residual cell viability by CellTiter96 Aqueous One Solution Cell Proliferation Assay; assay type: functional; design: concentration or dose not given beside the values
[3] = Activation of IRF-mediated immune response in human THP1-Dual KO-STING cells co-expressing ISRE reporter assessed as normalized luciferase gene expression by measuring relative luciferase units at 50 uM incubated for 24 hrs by QUANTI Luc based microplate reader method; assay type: functional
[4] = system: THP1-Dual; experiment: Cytotoxicity against human wild type THP1-Dual cells assessed as residual cell viability by CellTiter96 Aqueous One Solution Cell Proliferation Assay; assay type: functional; design: concentration or dose not given beside the values
[5] = Clearance in BALB/c mouse at 3 mg/kg, iv by LC-MS/MS analysis; assay type: ADME, organism-based; conditions: BALB/c, in vivo
[6] = AUCinfinity in BALB/c mouse at 3 mg/kg, iv by LC-MS/MS analysis; assay type: ADME, organism-based; design: time infinity, dose 3 mg/kg, route iv; conditions: BALB/c, in vivo
[7] = Volume of distribution at steady state in BALB/c mouse at 3 mg/kg, iv by LC-MS/MS analysis; assay type: ADME, organism-based; conditions: in vivo, read-out: Vdss
[8] = Terminal half life in BALB/c mouse at 3 mg/kg, iv by LC-MS/MS analysis; assay type: ADME, organism-based; conditions: in vivo, read-out: beta t1/2 (converted)
[9] = AUClast in BALB/c mouse at 3 mg/kg, iv by LC-MS/MS analysis; assay type: ADME, organism-based; design: time 0 - last, dose 3 mg/kg, route iv; conditions: in vivo
[10] = system: RAW264.7; experiment: Activation of NF-kappaB mediated pro-inflammatory effector proteins in mouse RAW264.7 cells at 100 to 500 nM for incubated for 3 hrs by western blot analysis; assay type: cell-based; conditions: filed as activator, dose 100-500 nM
[11] = Induction of IP-10 secretion in human THP-1 cells assessed as maximal efficacy by ELISA relative to control; assay type: functional
[12] = target: Nuclear factor NF-kappa-B complex (Homo sapiens) (UniProt Q00653+P19838+Q04206); experiment: Activation of NF-kappaB mediated pro-inflammatory effector proteins in human THP-1 cells at 2 to 10 nM incubated for 4 hrs by western blot analysis; assay type: cell-based; conditions: filed as activator, dose 2-10 nM
Sequence of Nuclear factor NF-kappa-B complex (Homo sapiens) (P19838 whole entry, looked up): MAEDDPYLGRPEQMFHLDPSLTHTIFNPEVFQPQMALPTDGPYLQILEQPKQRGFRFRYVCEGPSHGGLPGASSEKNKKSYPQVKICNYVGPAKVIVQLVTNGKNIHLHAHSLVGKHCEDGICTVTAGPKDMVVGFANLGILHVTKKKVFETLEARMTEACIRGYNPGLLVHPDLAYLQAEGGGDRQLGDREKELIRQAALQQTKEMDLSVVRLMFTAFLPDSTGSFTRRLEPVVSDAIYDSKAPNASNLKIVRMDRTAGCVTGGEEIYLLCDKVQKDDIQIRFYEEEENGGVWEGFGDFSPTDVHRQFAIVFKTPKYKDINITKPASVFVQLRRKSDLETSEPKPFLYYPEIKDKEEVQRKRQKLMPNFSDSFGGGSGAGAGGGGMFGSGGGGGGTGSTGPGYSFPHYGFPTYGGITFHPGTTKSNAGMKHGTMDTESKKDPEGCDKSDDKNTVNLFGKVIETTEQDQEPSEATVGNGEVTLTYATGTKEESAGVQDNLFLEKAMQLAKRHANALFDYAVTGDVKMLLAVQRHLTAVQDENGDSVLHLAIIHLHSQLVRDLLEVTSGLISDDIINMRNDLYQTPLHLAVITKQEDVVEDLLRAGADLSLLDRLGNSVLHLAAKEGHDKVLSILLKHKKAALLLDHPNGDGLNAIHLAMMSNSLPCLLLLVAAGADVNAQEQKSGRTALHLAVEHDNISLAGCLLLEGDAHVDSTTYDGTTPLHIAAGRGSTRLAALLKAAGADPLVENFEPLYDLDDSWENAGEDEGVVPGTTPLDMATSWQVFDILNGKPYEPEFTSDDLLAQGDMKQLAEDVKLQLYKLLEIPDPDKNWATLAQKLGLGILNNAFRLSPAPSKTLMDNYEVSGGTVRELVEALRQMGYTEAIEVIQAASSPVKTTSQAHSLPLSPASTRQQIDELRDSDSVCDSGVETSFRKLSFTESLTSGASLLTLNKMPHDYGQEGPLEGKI
Sequence of Nuclear factor NF-kappa-B complex (Homo sapiens) (Q00653 whole entry, looked up): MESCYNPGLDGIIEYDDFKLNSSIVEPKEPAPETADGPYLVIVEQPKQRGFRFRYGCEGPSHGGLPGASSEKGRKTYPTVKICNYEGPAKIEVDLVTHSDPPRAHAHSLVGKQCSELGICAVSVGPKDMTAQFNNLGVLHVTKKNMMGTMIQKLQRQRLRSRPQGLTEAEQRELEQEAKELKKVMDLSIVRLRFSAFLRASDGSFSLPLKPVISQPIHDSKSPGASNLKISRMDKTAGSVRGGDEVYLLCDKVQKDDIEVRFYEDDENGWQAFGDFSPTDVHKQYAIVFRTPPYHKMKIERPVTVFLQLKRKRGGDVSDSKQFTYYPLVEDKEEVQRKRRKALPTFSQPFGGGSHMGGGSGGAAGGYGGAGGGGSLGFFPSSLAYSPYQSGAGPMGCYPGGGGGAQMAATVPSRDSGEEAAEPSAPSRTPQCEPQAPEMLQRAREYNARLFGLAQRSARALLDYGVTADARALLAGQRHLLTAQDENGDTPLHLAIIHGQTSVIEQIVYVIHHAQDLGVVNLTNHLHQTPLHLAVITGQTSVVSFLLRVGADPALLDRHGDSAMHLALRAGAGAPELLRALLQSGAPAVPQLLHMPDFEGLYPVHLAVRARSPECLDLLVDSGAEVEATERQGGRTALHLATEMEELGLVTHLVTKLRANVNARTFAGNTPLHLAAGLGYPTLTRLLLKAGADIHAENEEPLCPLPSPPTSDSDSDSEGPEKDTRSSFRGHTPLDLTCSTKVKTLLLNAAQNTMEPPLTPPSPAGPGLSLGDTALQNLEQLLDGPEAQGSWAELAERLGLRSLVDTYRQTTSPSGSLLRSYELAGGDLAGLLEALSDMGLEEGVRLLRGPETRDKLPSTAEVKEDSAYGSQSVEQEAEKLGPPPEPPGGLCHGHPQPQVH
Sequence of Nuclear factor NF-kappa-B complex (Homo sapiens) (Q04206 whole entry, looked up): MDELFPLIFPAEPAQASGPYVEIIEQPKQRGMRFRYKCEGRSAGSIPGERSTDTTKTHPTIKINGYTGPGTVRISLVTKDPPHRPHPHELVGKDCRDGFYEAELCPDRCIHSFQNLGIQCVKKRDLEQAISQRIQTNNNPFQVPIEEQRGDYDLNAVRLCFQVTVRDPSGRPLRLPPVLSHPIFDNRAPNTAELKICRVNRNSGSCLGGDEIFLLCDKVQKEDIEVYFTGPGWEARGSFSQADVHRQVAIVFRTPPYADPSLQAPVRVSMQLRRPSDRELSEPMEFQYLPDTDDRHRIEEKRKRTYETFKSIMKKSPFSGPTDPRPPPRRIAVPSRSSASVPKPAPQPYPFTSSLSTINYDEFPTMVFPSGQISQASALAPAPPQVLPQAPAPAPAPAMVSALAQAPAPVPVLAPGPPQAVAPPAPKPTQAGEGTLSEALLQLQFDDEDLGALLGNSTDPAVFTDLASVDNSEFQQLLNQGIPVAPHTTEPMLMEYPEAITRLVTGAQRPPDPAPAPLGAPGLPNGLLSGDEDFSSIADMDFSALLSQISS

Sequence of Stimulator of interferon genes protein (Q86WV6 whole entry): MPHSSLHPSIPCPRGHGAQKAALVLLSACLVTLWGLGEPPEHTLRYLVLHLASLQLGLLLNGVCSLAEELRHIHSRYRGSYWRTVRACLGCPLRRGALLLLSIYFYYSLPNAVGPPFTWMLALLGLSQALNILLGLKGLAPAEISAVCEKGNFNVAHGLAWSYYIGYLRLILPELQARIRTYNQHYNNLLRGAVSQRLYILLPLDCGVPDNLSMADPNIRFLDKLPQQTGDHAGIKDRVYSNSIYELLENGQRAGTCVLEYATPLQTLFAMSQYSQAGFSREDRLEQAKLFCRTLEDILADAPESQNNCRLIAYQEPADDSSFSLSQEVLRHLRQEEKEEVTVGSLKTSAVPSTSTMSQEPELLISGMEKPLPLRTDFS

RLU [1] | SMILES | Activity [2] [%] | RLU [3] | Activity [4] [%] | other results
0.8 | Cn1cc(C(=O)Nc2nc3cc(C(N)=O)ccc3n2C[C@@H](O)c2ccccc2)c(C(F)(F)F)n1 | 92.4 | 1.1 | 89.4 | 
0.9 | CCn1nc(C)cc1C(=O)Nc1nc2cc(C(N)=O)ccc2n1CCCCNC(=O)c1ccn[nH]1 | 109.2 | 1.3 | 99.9 | 
2 | CCn1nc(C)cc1C(=O)/N=c1\[nH]c2cc(C(N)=O)ccc2n1C[C@@H](O)c1ccccc1 | 76.9 | 0.7 | 96 | 
0.6 | CCn1nc(C)cc1C(=O)Nc1nc2cc(C(=O)O)ccc2n1CCCCn1c(NC(=O)c2cc(C)nn2CC)nc2cc(C(=O)O)ccc21 | 101.6 | 0.6 | 113.1 | 
101 | CCn1nc(C)cc1C(=O)Nc1nc2cc(C(N)=O)cc(OCCCN)c2n1C | 110 | 1 | 88 | 
0.8 | Cn1cc(C(=O)Nc2nc3cc(C(N)=O)ccc3n2CCCCNC(=O)OC(C)(C)C)c(C(F)(F)F)n1 | 90.6 | 0.9 | 91.9 | 
7.7 | Cn1cc(C(=O)Nc2nc3cc(C(N)=O)ccc3n2CCCCn2c(NC(=O)c3cn(C)nc3C(F)(F)F)nc3cc(C(N)=O)ccc32)c(C(F)(F)F)n1 | 115 | 0.8 | 96.7 | 
0.8 | CCn1nc(C)cc1C(=O)Nc1nc2cc(C(N)=O)ccc2n1CCCCN | 85.5 | 1 | 95.2 | 
0.9 | NC(=O)c1ccc2c(c1)nc(NC(=O)c1cc3ccccc3o1)n2CCCCn1c(NC(=O)c2cc3ccccc3o2)nc2cc(C(N)=O)ccc21 | 96.8 | 1.3 | 103 | 
1.1 | Cc1cc(C(=O)Nc2nc3cc(C(N)=O)ccc3n2CCCCNC(=O)OC(C)(C)C)n(C(C)(C)C)n1 | 82.7 | 1.2 | 83.5 | 
0.8 | CCn1nc(C)cc1C(=O)Nc1nc2cc(C(=O)OC)ccc2n1CCCCn1c(NC(=O)c2cc(C)nn2CC)nc2cc(C(=O)OC)ccc21 | 117.9 | 0.8 | 122 | 
104 | CCn1nc(C)cc1C(=O)NCCCCn1c(NC(=O)c2cc(C)nn2CC)nc2cc(C(N)=O)ccc21 | 88.2 | 0.9 | 68.2 | clearance [5]: 158 mL/min/kg; AUC(0-inf) [6]: 320 ng·h/mL; Vd [7]: 1.8 L/kg; half-life [8]: 35.4 min; AUC(0-t) [9]: 310 ng·h/mL
101 | CCn1nc(C)cc1C(=O)Nc1nc2cc(C(N)=O)cc(OC)c2n1C/C=C/Cn1c(NC(=O)c2cc(C)nn2CC)nc2cc(C(N)=O)cc(OCCCN)c21 |  | 0.7 |  | 
13.7 | CCn1nc(C)cc1C(=O)NCCCn1c(NC(=O)c2cc(C)nn2CC)nc2cc(C(N)=O)ccc21 | 82.3 | 0.4 | 40.6 | 
68.6 | CCn1nc(C)cc1C(=O)/N=c1\[nH]c2cc(C(N)=O)cc(OC)c2n1C/C=C/Cn1/c(=N/C(=O)c2cc(C)nn2CC)[nH]c2cc(C(N)=O)cc(OCCCN3CCOCC3)c21 |  | 0.7 | 83.1 | Activity [10]: Active; Emax [11]: 136%; Activity [12]: Active
127 | CCn1nc(C)cc1C(=O)Nc1nc2cc(C(N)=O)cc(OCCCNC(=O)OC(C)(C)C)c2n1C | 110 | 0.8 | 80.1 | 
0.4 | NC(=O)c1ccc2c(c1)nc(NC(=O)c1nn(C3CCCCO3)c3ccccc13)n2C[C@@H](O)c1ccccc1 (stereo partly specified) | 93.4 | 0.9 | 95.8 | 
93.3 | CCn1nc(C)cc1C(=O)Nc1nc2cc(C(N)=O)ccc2n1CCCCNC(=O)c1cc(C)nn1C | 105.4 | 0.9 | 66 | 
13.7 | CCn1nc(C)cc1C(=O)Nc1nc2cc(C(N)=O)cc(OC)c2n1C/C=C/CNC(=O)OC(C)(C)C | 87.7 | 0.7 | 89.5 | 
99.1 | CCn1nc(C)cc1C(=O)NCCCOc1cc(C(N)=O)cc2nc(NC(=O)c3cc(C)nn3CC)n(C)c12 | 113 | 0.9 | 94 | 
0.8 | CCn1nc(C(F)(F)F)cc1C(=O)Nc1nc2cc(C(N)=O)ccc2n1CCCCNC(=O)OC(C)(C)C | 89.9 | 1.1 | 99.4 | 

RLU [1] | SMILES | Activity [2] [%] | RLU [3] | Activity [4] [%] | other results
7 | CCn1nc(C)cc1C(=O)Nc1nc2cc(C(N)=O)ccc2n1CCCCNC(=O)c1ccccc1 | 64.2 | 0.2 | 27.4 | 
0.8 | CC(C)(C)OC(=O)NCCCCn1c(NC(=O)c2cc3ccccc3o2)nc2cc(C(N)=O)ccc21 | 98 | 0.7 | 92.7 | 
1 | CCn1nc(C)cc1C(=O)Nc1nc2cc(C(N)=O)ccc2n1CCCCNC(=O)c1cccnc1 | 96.4 | 1.1 | 98.9 | 
4.8 | CCn1nc(C)cc1C(=O)Nc1nc2cc(C(N)=O)ccc2n1CCCCNC(=O)C(C)(C)C | 58.6 | 0.4 | 103.7 | 
0.9 | Cc1cc(C(=O)Nc2nc3cc(C(N)=O)ccc3n2CCCCNC(=O)OC(C)(C)C)n(C(C)C)n1 | 100.1 | 0.8 | 97.1 | 
20 | CCn1nc(C)cc1C(=O)Nc1nc2cc(C(N)=O)ccc2n1CCCNC(=O)OC(C)(C)C | 88 | 0.9 | 90.2 | 
0.4 | CCn1nc(C)cc1C(=O)Nc1nc2cc(C(N)=O)ccc2n1CCCCNC(C)=O | 74.9 | 0.3 | 40.8 | 
0.9 | Cc1cc(C(=O)Nc2nc3cc(C(N)=O)ccc3n2CCCCNC(=O)OC(C)(C)C)n(C)n1 | 108.2 | 1.2 | 96.7 | 
21 | CCn1nc(C)cc1C(=O)Nc1nc2cc(C(N)=O)ccc2n1CCCCNC(=O)OC(C)(C)C | 78.4 | 0.6 | 97.6 | 
0.9 | NC(=O)c1ccc2c(c1)nc(NC(=O)c1n[nH]c3ccccc13)n2C[C@@H](O)c1ccccc1 | 100.9 | 1.3 | 91.2 | 
1 | CCn1nc(C)cc1C(=O)NCCCCCn1c(NC(=O)c2cc(C)nn2CC)nc2cc(C(N)=O)ccc21 | 77.5 | 0.3 | 44.9 | 
0.8 | C=CCn1nc(C(=O)Nc2nc3cc(C(N)=O)ccc3n2CCCCn2c(NC(=O)c3cc(C)n(CC=C)n3)nc3cc(C(N)=O)ccc32)cc1C | 108.3 | 0.9 | 108.6 | 
 | Nc1nc2c(ncn2[C@@H]2O[C@@H]3COP(=O)(O)O[C@H]4[C@@H](O)[C@H](n5cnc6c(N)ncnc65)O[C@@H]4COP(=O)(O)O[C@@H]2[C@@H]3O)c(=O)[nH]1 |  |  | 76.5 | 
0.7 | CCn1nc(C(F)(F)F)cc1C(=O)Nc1nc2cc(C(N)=O)ccc2n1C[C@@H](O)c1ccccc1 | 91 | 1 | 88.1 | 
0.9 | C=CCn1nc(C(=O)Nc2nc3cc(C(N)=O)ccc3n2CCCCNC(=O)OC(C)(C)C)cc1C | 103.9 | 1.4 | 96.1 | 
0.9 | CC(C)(C)OC(=O)NCCCCn1c(NC(=O)c2ccoc2)nc2cc(C(N)=O)ccc21 | 96.2 | 1 | 90.3 | 
2.7 | CCn1nc(C)cc1C(=O)Nc1nc2cc(C(N)=O)cc(OC)c2n1CCCCNC(=O)OC(C)(C)C | 90 | 0.5 | 72.1 | 
16.3 | CCn1nc(C)cc1C(=O)Nc1nc2cc(C(N)=O)ccc2n1CCCCCNC(=O)OC(C)(C)C | 87 | 0.6 | 54.9 | 
0.8 | NC(=O)c1ccc2c(c1)nc(NC(=O)c1cc3ccccc3o1)n2C[C@@H](O)c1ccccc1 | 105.5 | 0.8 | 90.2 | 
0.5 | NC(=O)c1ccc2c(c1)nc(NC(=O)c1ccoc1)n2C[C@@H](O)c1ccccc1 | 94 | 0.9 | 88 | 
